Earlier results, collected in patent US20260001860A1, “METHODS AND COMPOSITIONS OF INHIBITING DCN1-UBC12 INTERACTION” (University of Kentucky Research Foundation, priority 2022, published 2026).

Conditions: patient population taking either proteasome inhibitor

Row | Structure (SMILES) | patient population exhibiting grade 3 hematologic adverse events (thrombocytopenia and neutropenia) [%] | patients suffering grade 4 adverse events (potentially life-threatening) [%]
1 | CC(C)C[C@H](NC(=O)[C@H](Cc1ccccc1)NC(=O)c1cnccn1)B(O)O [bortezomib] | 50 | ~15
2 | CC(C)C[C@H](NC(=O)[C@H](CCc1ccccc1)NC(=O)CN1CCOCC1)C(=O)N[C@@H](Cc1ccccc1)C(=O)N[C@@H](CC(C)C)C(=O)[C@@]1(C)CO1 [carfilzomib] | 50 | ~15
